In patent US8716312B2, “Inhibitors of diacylglycerol acyltransferase” (Merck Sharp & Dohme Corporation, priority 2008, dated 2014):

Target: T1, human DGAT1 enzyme (Homo sapiens, UniProt O75907)
T1 sequence (O75907 1-488): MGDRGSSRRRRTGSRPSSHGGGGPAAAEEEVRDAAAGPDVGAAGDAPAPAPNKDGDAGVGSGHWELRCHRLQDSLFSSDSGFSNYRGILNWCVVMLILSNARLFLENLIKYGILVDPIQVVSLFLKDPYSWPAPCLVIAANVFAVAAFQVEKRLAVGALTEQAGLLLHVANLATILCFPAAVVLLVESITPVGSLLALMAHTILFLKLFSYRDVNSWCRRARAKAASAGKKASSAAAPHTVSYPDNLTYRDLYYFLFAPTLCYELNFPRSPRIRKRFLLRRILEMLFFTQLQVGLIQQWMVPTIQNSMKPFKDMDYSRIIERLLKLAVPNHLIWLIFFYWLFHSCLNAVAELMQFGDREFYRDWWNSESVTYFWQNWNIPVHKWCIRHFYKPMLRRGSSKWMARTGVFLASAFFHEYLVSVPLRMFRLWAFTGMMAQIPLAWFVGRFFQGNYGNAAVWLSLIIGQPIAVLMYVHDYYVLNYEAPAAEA
Experiment: in vitro DGAT1 inhibition assay (microsomes, [14C]-palmitoyl-CoA, SPA beads)
Protocol: The in vitro assay to identify DGAT1 inhibitors uses human DGAT1 enzyme expressed in Sf9 insect cells prepared as microsomes. The reaction is initiated by the addition of the combined substrates 1,2-dioleoyl-sn-glycerol and [^14C]-palmitoyl-Co A and incubated with test compounds and microsomal membranes for 2 hours at room temperature. The assay is stopped by adding 0.5 mg wheat germ agglutinin beads in assay buffer with 1% Brij-35 and 1% 3-cholamidopropyldimethyl-ammonio-1-propane sulfonate. Plates are sealed with TopSeal and incubated for 18 hours to allow the radioactive triglyceride product to come into proximity with the bead. Plates are read on a TopCount instrument.
Percent inhibition was calculated as the percent of (test compound inhibition minus non-specific binding) relative to (total binding minus non-specific binding). IC50 values were determined by curve fitting the data to a Sigmoidal dose-response in GraphPad Prism utilizing the following equation: Y=A+(B−A)/(1+10^((Log IC50−X))), where A and B are the bottom and top of the curve (highest and lowest inhibition), respectively, and X is the logarithm of concentration.

Row | SMILES | IC50 [nM]
1 | O=C(Nc1ccc(N2CCN(C(=O)Cc3ccccc3F)CC2)nc1)c1oc(N2CCC(c3ccccc3)CC2)nc1C(F)(F)F [Compound 225] | 11 to 100
2 | CC1CCCN(c2nc(C(F)(F)F)c(C(=O)Nc3ccc(N4CCN(c5ccccc5O)CC4)nc3)o2)C1 (centres unmarked) [Compound 171, N-(6-(4-(2-hydroxyphenyl)piperazin-1-yl)pyridin-3-yl)-2-(3-methylpiperidin-1-yl)-4-(trifluoromethyl)oxazole-5-carboxamide] | 11 to 100
3 | N#C/N=C(/N1CCCC1)N1CCN(c2ccc(NC(=O)c3oc(N4CCC(c5ccccc5)CC4)nc3C(F)(F)F)cn2)CC1 [Compound 182, (Z)—N-(6-(4-((cyanoimino)(pyrrolidin-1-yl)methyl)piperazin-1-yl)pyridin-3-yl)-2-(4-phenylpiperidin-1-yl)-4-(trifluoromethyl)oxazole-5-carboxamide] | 101 to 500
4 | O=C(Nc1ccc(N2CCN(c3nc4ccccc4[nH]3)CC2)nc1)c1oc(N2CCC(c3ccccc3)CC2)nc1C(F)(F)F [Compound 237, N-(6-(4-(1H-benzo[d]imidazol-2-yl)piperazin-1-yl)pyridin-3-yl)-2-(4-phenylpiperidin-1-yl)-4-(trifluoromethyl)oxazole-5-carboxamide] | 101 to 500
5 | CC1CCCN(c2nc(C(F)(F)F)c(C(=O)Nc3ccc(N4CC(NC(=O)Nc5ccccc5F)C4)nc3)o2)C1 (centres unmarked) [Compound 221, N-(6-(3-(3-(2-fluorophenyl)ureido)azetidin-1-yl)pyridin-3-yl)-2-(3-methylpiperidin-1-yl)-4-(trifluoromethyl)oxazole-5-carboxamide] | 101 to 500
6 | O=C(Nc1ccc(N2CCN(C(=O)C3CCc4ccccc4N3)CC2)nc1)c1oc(N2CCC(c3ccccc3)CC2)nc1C(F)(F)F (centres unmarked) [Compound 241, 2-(4-phenylpiperidin-1-yl)-N-(6-(4-(1,2,3,4-tetrahydroquinoline-2-carbonyl)piperazin-1-yl)pyridin-3-yl)-4-(trifluoromethyl)oxazole-5-carboxamide] | 101 to 500
7 | O=C(Nc1ccc(N2CCN(C(=O)[C@H](O)C3CCCCC3)CC2)nc1)c1oc(N2CCC(c3cccc(Cl)c3)C2)nc1C(F)(F)F (stereo partly drawn) [Compound 213, N-(6-(4-((R)-2-cyclohexyl-2-hydroxyacetyl)piperazin-1-yl)pyridin-3-yl)-2-(3-(3-chlorophenyl)pyrrolidin-1-yl)-4-(trifluoromethyl)oxazole-5-carboxamide] | 11 to 100
8 | CC1CCCN(c2nc(C(F)(F)F)c(C(=O)Nc3ccc(N4CCC(OCc5cccc(C(=O)O)c5)CC4)nc3)o2)C1 (centres unmarked) [Compound 254, 3-((1-(5-(2-(3-methylpiperidin-1-yl)-4-(trifluoromethyl)oxazole-5-carboxamido)pyridin-2-yl)piperidin-4-yloxy)methyl)benzoic acid] | 11 to 100
9 | O=C(Nc1ccc(N2CCN(C(=O)C3Cc4ccccc4C3)CC2)nc1)c1oc(N2CCC(c3ccccc3)CC2)nc1C(F)(F)F [Compound 244, N-(6-(4-(2,3-dihydro-1H-indene-2-carbonyl)piperazin-1-yl)pyridin-3-yl)-2-(4-phenylpiperidin-1-yl)-4-(trifluoromethyl)oxazole-5-carboxamide] | 101 to 500
10 | O=C(Nc1ccc(N2CCN(C(=O)[C@H](O)c3ccccc3)CC2)nc1)c1oc(N2CCC(c3ccccc3)CC2)nc1C(F)(F)F [Compound 200, (R)—N-(6-(4-(2-hydroxy-2-phenylacetyl)piperazin-1-yl)pyridin-3-yl)-2-(4-phenylpiperidin-1-yl)-4-(trifluoromethyl)oxazole-5-carboxamide] | 11 to 100
11 | O=C(Nc1ccc(N2CCN(C(=O)Cc3c(F)cccc3F)CC2)nc1)c1oc(N2CCC(c3ccccc3)CC2)nc1C(F)(F)F [Compound 229, N-(6-(4-(2-(2,6-difluorophenyl)acetyl)piperazin-1-yl)pyridin-3-yl)-2-(4-phenylpiperidin-1-yl)-4-(trifluoromethyl)oxazole-5-carboxamide] | 11 to 100
